These results are taken from US20070037253A1, “Methods and compositions for treatment of arthritis and cancer” (priority 2003, published 2007).

One assay has as its target T1, secreted MMP-2 (Oryctolagus cuniculus, UniProt P50757).
T1 construct: endogenous in cells; host or cells: HIG-82 rabbit fibroblast-like synoviocytes (ATCC CRL-1832)
T1 sequence (P50757 110-662): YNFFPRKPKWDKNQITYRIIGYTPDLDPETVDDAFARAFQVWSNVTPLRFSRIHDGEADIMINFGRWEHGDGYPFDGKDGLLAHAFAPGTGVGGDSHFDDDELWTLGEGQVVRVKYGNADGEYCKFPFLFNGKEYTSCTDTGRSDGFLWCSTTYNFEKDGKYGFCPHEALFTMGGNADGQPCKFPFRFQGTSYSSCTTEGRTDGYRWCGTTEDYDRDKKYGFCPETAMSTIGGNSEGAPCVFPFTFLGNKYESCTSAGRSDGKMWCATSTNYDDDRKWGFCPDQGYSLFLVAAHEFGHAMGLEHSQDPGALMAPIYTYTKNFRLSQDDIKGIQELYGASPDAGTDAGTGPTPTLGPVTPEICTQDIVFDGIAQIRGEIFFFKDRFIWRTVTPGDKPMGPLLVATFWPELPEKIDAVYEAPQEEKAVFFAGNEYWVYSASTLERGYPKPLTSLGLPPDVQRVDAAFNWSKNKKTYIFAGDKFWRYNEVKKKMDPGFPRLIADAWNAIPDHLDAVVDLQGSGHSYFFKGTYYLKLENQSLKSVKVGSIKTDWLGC
In words: Secreted gelatinase activity of IL-1β-stimulated rabbit synovial fibroblasts treated with peptide (FIG. 4B). It counts as cell-based. The settings on record: cells treated with 1-10 μM peptide, IL-1β stimulation. The method, then:
(§1) Gelatinase activity in the supernatants from cells induced with IL-1β (5 ng) for 48 h was analyzed by gelatin zymography. (A) Supernatants (activated with final 1 mM APMA at 30° C. for 30 min) were pre-incubated with various inhibitors. (5 μM peptides or 1-2 μM Calbiochem MMP inhibitor II) for 1 h at 25° C. prior to zymographic analyses—Lane 1, without activation (no inhibitor); Lane 2, with activation (no inhibitor); Lanes 3-8, with activation plus inhibitor: 3, P-NT-II; 4, PIP [59-67] monomer; 5, PIP [57-67] dimer; 6, PIP [59-67] dimer; 7 and 8, positive control MMP Inhibitor II (Calbiochem) at 1 and 2 μM concentrations. (B) Rabbit synovial fibroblasts were stimulated by IL-1β in the presence or absence of 1-10 μM of PIP [59-67] dimer for 48 h. Culture supernatants were concentrated by centrifugation (Centricon centrifugal filter devices, M.W. cutoff 30,000) and activated with APMA (1 mM final) before measurement of gelatinase activity by gelatin zymography. Lanes: 1 (−peptide−APMA); 2 (−peptide+APMA); 3 (+1 μM peptide+APMA); 4 (+5 μM peptide+APMA); 5 (+7.5 μM peptide+APMA); 6 (+10 μM peptide+APMA).
(§2) Gelatin zymography: human synovial fluid, purified human recombinant MMP-2 and -9 or APMA-activated concentrated culture supernatant samples (10 μL) was mixed (1:1) with Laemmli sample buffer, loaded on 4% acrylamide stacking gel and electrophoresed (120 V) at 4° C. on a 10% acrylamide-resolving minigel containing 0.1% gelatin. After electrophoresis for 1 h, the gels were soaked in 2.5% Triton X-100 on a shaker for 1 h, changing the solution after 30 min, to eliminate SDS. After overnight incubation in zymogen activation buffer [50 mM Tris-HCl, pH 7.5, containing 10 mM CaCl2 and 5 mM ZnCl2] at 37° C., the gels were rinsed in distilled water, and stained for 3 hr with […], after which clear bands of digested gelatin were clearly visible. The gels were briefly rinsed in distilled water and scanned by the Bio-Rad GS-710 Calibrated Imaging Densitometer.
(§3) FLSC culture and inhibition of extracellular MMP activity: All experiments were performed on HIG-82 rabbit fibroblast-like synoviocytes (FLSCs) obtained from American Type Culture Collection (Manassas, Va.; catalogue No. CRL-1832). FLSCs were grown in Ham's F-12 medium containing 10% fetal bovine serum (FBS) and 1% penicillin/streptomycin, as recommended by the supplier. For experimental purposes, FLSCs were seeded into 12-well plates, grown to near confluence, and then serum starved (Ham's F-12 without FBS or penicillin/streptomycin) for 16 h. […] After activation with APMA (1 mM final concentration), the samples were measured for MMP-1 activity using BIOMOL AK-404 QuantiZyme Assay system, and for MMP-2 and -9 activities by gelatin zymography.

The target in another assay is T2, secreted MMP-9 (Oryctolagus cuniculus, UniProt P41246).
T2 construct: endogenous in cells; host or cells: HIG-82 rabbit fibroblast-like synoviocytes (ATCC CRL-1832)
T2 sequence (P41246 107-707): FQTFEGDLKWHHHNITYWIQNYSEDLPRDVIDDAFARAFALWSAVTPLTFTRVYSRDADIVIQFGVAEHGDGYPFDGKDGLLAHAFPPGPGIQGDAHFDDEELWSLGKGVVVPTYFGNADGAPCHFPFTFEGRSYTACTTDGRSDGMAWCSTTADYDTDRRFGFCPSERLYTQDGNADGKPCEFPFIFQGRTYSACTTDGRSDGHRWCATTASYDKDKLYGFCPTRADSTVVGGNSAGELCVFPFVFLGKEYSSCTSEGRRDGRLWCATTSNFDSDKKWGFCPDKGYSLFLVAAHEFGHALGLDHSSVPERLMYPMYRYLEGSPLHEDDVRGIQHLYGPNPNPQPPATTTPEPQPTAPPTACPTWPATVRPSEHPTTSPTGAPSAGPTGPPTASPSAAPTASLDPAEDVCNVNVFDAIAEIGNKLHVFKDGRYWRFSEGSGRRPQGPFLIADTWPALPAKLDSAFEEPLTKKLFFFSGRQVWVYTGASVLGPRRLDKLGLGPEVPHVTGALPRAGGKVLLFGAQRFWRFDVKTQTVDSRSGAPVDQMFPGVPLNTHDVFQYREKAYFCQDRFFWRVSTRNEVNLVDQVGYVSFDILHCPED
The description is as above. The format is cell-based. The settings on record: cells treated with 1-10 μM peptide, IL-1β stimulation. The procedure:
as §1, §2, §3

Where a SMILES comes first, the peptide text is derived from it.

With `CC[C@H](C)[C@H](NC(=O)[C@H](CC(=O)O)NC(=O)[C@@H](N)C(C)C)C(=O)N[C@@H](Cc1c[nH]cn1)C(=O)N[C@H](C(=O)N[C@@H](Cc1c[nH]c2ccccc12)C(=O)N[C@@H](CC(=O)O)C(=O)NCC(=O)N[C@H](C(=O)N[C@H](C(=O)N[C@@H](CC(=O)O)C(=O)N[C@H](C(=O)N[C@@H](Cc1c[nH]cn1)C(=O)N[C@H](C(=O)N[C@@H](Cc1c[nH]c2ccccc12)C(=O)N[C@@H](CC(=O)O)C(=O)NCC(=O)N[C@H](C(=O)O)C(C)C)C(C)C)[C@@H](C)CC)C(C)C)C(C)C)C(C)C` [PIP [59-67] dimer] (H-VDIHVWDGVVDIHVWDGV-OH; N-terminus and C-terminus assumed), the “activity of secreted MMP-2” value on secreted MMP-2 is on record as “failed to inhibit”; at secreted MMP-2 (listed as dimerized peptide), “less marked”. Also, the “activity of secreted MMP-9” value on secreted MMP-9 is given as “failed to inhibit”; at secreted MMP-9 (listed as dimerized peptide), “less marked”.
